Reference: PMC2994747, “Molecular Characterization of c-Abl/c-Src Kinase Inhibitors Targeted against Murine Tumour Progenitor Cells that Express Stem Cell Markers” (PLoS ONE, 2010)

Tests used:
Assay in all cases: Western blot, semi-quantitative protein expression
Format in all cases: cell-based, mouse
GammaA3 = tested on: GammaA3
Procedure: (§1) For the Western Blot analysis, cells were rinsed and lysed as previously described. An amount of 25 µg protein was used for SDS-PAGE. Antibodies for c-Abl (sc-131), Actin (sc-1616), Cdc2-p34 (sc-8395), EPS15 (sc-1840), FAK (sc-558), c-Fos (sc-52), p38 (sc-7972), p53 (sc-6243) and STAT5 (sc-835x) were obtained from Santa Cruz (Santa Cruz Biotechnology, Heidelberg, Germany), while c-Src (2109) and phospho-Src Y416 (2101) were purchased from Cell Signaling (Cell Signaling Technology, Frankfurt a. M., Germany). The EGFR (06-847), phospho-EGFR Y992 (07-821) and phospho-EGFR Y1045 (04-284) stem from Upstate (Upstate, Schwalbach, Germany) and the hnRNP-K (A300-676A) from Bethyl Labs (Bethyl Laboratories, Montgomery, Texas, USA). Finally p73 (IMG-246) was supplied by Imgenex (Imgenex, Hamburg, Germany). Depending on the primary antibody the secondary antibodies were either horseradish peroxidase-conjugated anti-mouse (AP 160P), anti-rabbit (AP 132P) or anti-sheep (AP 147P) (Chemicon, Schwalbach, Germany).
(§2) Semi-quantitative analysis were carried out with Kodak 1D Image Analysis Software in reference to the vehicle treated control cells (see supplementary table S7).

A2C12 = tested on: A2C12
Procedure: as §1, §2

GammaD12 = tested on: GammaD12
Procedure: as §1, §2

BetaD5 = tested on: BetaD5
Procedure: as §1, §2

`CSc1nc(NCCc2ccc(Cl)cc2)c2cnn(CC(Cl)c3ccccc3)c2n1` (centres unmarked) [Si57] was tested, and the Actin protein expression (GammaA3) was 105, the “EGFR Y992-p protein expression” value (GammaA3) was 90 and the “EGFR Y1045-p protein expression” value (GammaA3) was 15. The EGFR protein expression (GammaA3) was 39, the EPS15 protein expression (GammaA3) was 102 and the FAK protein expression (GammaA3) was 101. For the same compound, the STAT5 protein expression (GammaA3) was 93, the c-Abl protein expression (GammaA3) was 62 and the c-Fos protein expression (GammaA3) was 79. The “c-Src Y416-p protein expression” value (GammaA3) was 256, the c-Src protein expression (GammaA3) was 104 and the hnRNP-K protein expression (GammaA3) was 93. It also gave a p38 protein expression (GammaA3) of 38, a p53 protein expression (GammaA3) of 54 and an Actin protein expression (A2C12) of 97. For the same compound, the “EGFR Y992-p protein expression” value (A2C12) was 117, the “EGFR Y1045-p protein expression” value (A2C12) was 29 and the EGFR protein expression (A2C12) was 66. The EPS15 protein expression (A2C12) was 89, the FAK protein expression (A2C12) was 47 and the STAT5 protein expression (A2C12) was 104. It also gave a c-Abl protein expression (A2C12) of 49, a c-Fos protein expression (A2C12) of 82 and a c-Src protein expression (A2C12) of 92. The hnRNP-K protein expression (A2C12) was 104, the p38 protein expression (A2C12) was 59 and the p53 protein expression (A2C12) was 60. For the same compound, the p73 protein expression (A2C12) was 40, the Actin protein expression (GammaD12) was 106 and the “EGFR Y992-p protein expression” value (GammaD12) was 62. The “EGFR Y1045-p protein expression” value (GammaD12) was 96, the EGFR protein expression (GammaD12) was 89 and the EPS15 protein expression (GammaD12) was 135. For the same compound, the FAK protein expression (GammaD12) was 106, the STAT5 protein expression (GammaD12) was 110 and the c-Abl protein expression (GammaD12) was 212. The c-Fos protein expression (GammaD12) was 70, the “c-Src Y416-p protein expression” value (GammaD12) was 90 and the c-Src protein expression (GammaD12) was 103. It also gave a hnRNP-K protein expression (GammaD12) of 100, a p38 protein expression (GammaD12) of 29 and a p53 protein expression (GammaD12) of 58. The Actin protein expression (BetaD5) was 98, the “EGFR Y992-p protein expression” value (BetaD5) was 116 and the “EGFR Y1045-p protein expression” value (BetaD5) was 65. It also gave an EGFR protein expression (BetaD5) of 61, an EPS15 protein expression (BetaD5) of 781 and an FAK protein expression (BetaD5) of 98. The STAT5 protein expression (BetaD5) was 192, the c-Abl protein expression (BetaD5) was 89 and the c-Fos protein expression (BetaD5) was 58. The “c-Src Y416-p protein expression” value (BetaD5) was 19, the c-Src protein expression (BetaD5) was 153 and the hnRNP-K protein expression (BetaD5) was 126. The p38 protein expression (BetaD5) was 76 and the p53 protein expression (BetaD5) was 248.
